Entries after “also recorded” stand apart in the source; their conditions may differ.
What was measured:
rats [1] = assay: Rat adrenocortical suppression (ACTH1-24-stimulated serum corticosterone); settings: IV bolus 2×ED50 (14 mg/kg carboetomidate, 2 mg/kg etomidate), 15 min after ACTH1-24
Description: Immediately after weighing and IV catheter placement, dexamethasone (0.2 mg/kg IV; American Regent, Shirley, N.Y.) was administered to each rat to inhibit endogenous adrenocorticotropic hormone (ACTH) release, to suppress baseline corticosterone production, and to inhibit the variable stress response to restraint and handling. […] The concentrations of carboetomidate and etomidate in DMSO were 40 and 5.7 mg/ml, respectively. Immediately after hypnotic or vehicle administration, ACTH1-24 (25 μg/kg; Sigma-Aldrich Chemical Co, St. Louis, Mo.) was given intravenously to stimulate corticosterone production. Fifteen minutes later, a second blood sample was drawn to measure the ACTH1-24-stimulated serum corticosterone concentration. ACTH1-24 was dissolved in 1 mg/ml of deoxygenated water as stock, aliquoted, and frozen (−20° C.); a fresh aliquot was thawed just before each use. Rats in all three groups (carboetomidate, etomidate, and vehicle) received the same volume of DMSO (350 μl/kg).
Blood samples were allowed to clot at room temperature (10-60 min) before centrifugation at 3,500 g for 5 min. Serum was carefully expressed from any resulting superficial fibrin clot using a clean pipette tip before a second centrifugation at 3,500 g for 5 min. After the second centrifugation, the resultant clot-free serum layer was transferred to a fresh vial for a final, high-speed centrifugation (16,000 g, for 5 min) to pellet any contaminating red blood cells or particulates. The serum was transferred to a clean vial and promptly frozen (−20° C.) pending corticosterone measurement. After thawing and heat inactivation of corticosterone-binding globulins (65° C. for 20 min), serum baseline and ACTH1-24-stimulated corticosterone concentrations were quantified using an enzyme-linked immunosorbent assay (Diagnostic Systems Laboratories, Webster, Tex.) and a 96-well plate reader (Molecular Devices, Sunnyvale, Calif.).
Male Sprague Dawley rats were pre-treated with dexamethasone to inhibit endogenous ACTH production and minimize baseline serum corticosterone concentrations. […]

[2] = biological target: T1, human α1β2γ2L GABAA receptors (Homo sapiens, UniProt P14867+P47870); settings: 4 μM etomidate, inventors' previous study; cited from earlier work
T1 construct: expressed in transfected cells; host or cells: Xenopus laevis oocytes injected with mRNA (subunit ratio 1:1:2)

rats [3] = assay: Loss of righting reflex in rats after IV bolus; type: in vivo, Sprague-Dawley rats; settings: for anesthetic toxicity in rats: highest doses; for slope of duration of anesthesia versus logarithm of anesthetic dose: time to spontaneous righting; for onset time for LORR / onset time for LORR, range: IV, equihypnotic doses 4×ED50 (28 mg/kg carboetomidate, 4 mg/kg etomidate); for time to LORR after IV bolus (in words): doses sufficient to produce LORR
Description: Rats: Rats were briefly restrained in a 3-inch diameter, 9-inch long acrylic chamber with a tail exit port. The desired dose of carboetomidate in dimethyl sulfoxide (DMSO; typically at 40 mg/ml) was injected through a lateral tail vein catheter followed by an approximately 1-ml normal saline flush. After injection, rats were removed from the restraint device and turned supine. […] A stopwatch was used to measure the duration of LORR, which was defined as the time from carboetomidate injection until the animal spontaneously righted itself. The ED50 for LORR on bolus administration was determined from the dose dependence of LORR using the method of Waud.26 Onset time for LORR was determined separately by injecting rats with 28 mg/kg of carboetomidate (40 mg/ml in DMSO) or 4 mg/kg of etomidate (5.7 mg/ml in DMSO) through a lateral tail vein catheter followed by an approximately 1-ml normal saline flush. After injection, rats were immediately removed from the restraint device and repeatedly turned supine until they no longer spontaneously righted. The onset time was defined as the time from injection until LORR occurred.
Etomidate or carboetomidate was administered to Sprague Dawley rats as an IV bolus into their tail veins. […] LORR was defined as the time from drug injection until the animal spontaneously righted itself. The ED50 for LORR upon bolus anesthetic administration was determined from the anesthetic dose-dependence of LORR.

[4] = test system: critically ill trauma patients; settings: critically ill trauma patients sedated with etomidate vs. benzodiazepines (28%); Watt and Ledingham 1984; cited from earlier work
Xenopus laevis tadpoles [5] = settings: literature (Husain et al. 2003); cited from earlier work
humans = settings: literature (Arden et al. 1986); cited from earlier work
rats [6] = assay: Rat hemodynamics (mean blood pressure); settings: IV; for effect on mean blood pressure relative to DMSO vehicle (FIG. 7B): 14 mg/kg carboetomidate, 2 mg/kg etomidate (2×ED50); for effect on mean blood pressure, comparison of three anesthetics (FIG. 7A): twice ED50 for LORR (8 mg/kg propofol, 2 mg/kg etomidate, 14 mg/kg carboetomidate)
Description: Femoral arterial catheters, tunneled between the scapulas, were preimplanted by the vendor (Charles River Laboratories). Animals were fully recovered from the placement procedure on arrival.
On the day of study, after weighing and lateral tail vein IV catheter placement, rats were restrained in the acrylic tube with a tail exit port and allowed to acclimate for approximately 10 to 20 min before data collection. […] All data were acquired and analyzed using LabView Software (version 8.5 for Macintosh OS X; National Instruments).
Carboetomidate (40 mg/ml) dissolved in DMSO, etomidate (5.7 mg/ml) dissolved in DMSO, or DMSO vehicle alone as a control was administered through the tail vein catheter followed by approximately 1-ml normal saline flush.
The average mean blood pressure was calculated at each 30-second epoch during this study period.

[7] = biological target: T1, human α1β2γ2L GABAA receptors; assay: GABAA receptor electrophysiology, wild-type receptors in Xenopus oocytes (two-electrode voltage clamp); type: cell-based; settings: 10 μM compound
Description: Adult female Xenopus laevis frogs were anesthetized with 0.2% tricaine (ethyl-m-aminobenzoate) and hypothermia. Ovary lobes were then excised through a small laparotomy incision and placed in OR-2 solution (82 mM NaCl, 2 mM KCl, 2 mM MgCl2, 5 mM HEPES, pH 7.5) containing collagenase 1A (1 mg/ml) for 3 h to separate oocytes from connective tissue.
Stage 4 and 5 oocytes were injected with messenger RNA encoding the α1, β2 (or β2M286W), and […] subunits of the human GABAA receptor (˜40 ng of messenger RNA total at a subunit ratio of 1:1:2). […]
All electrophysiologic recordings were performed using the whole cell two-electrode voltage-clamp technique. […] Current responses were recorded using Clampex 9.2 software (Axon Instruments) and processed using a Bessel (8-pole) low-pass filter with a cutoff at 50 Hz using Clampfit 9.2 software (Axon Instruments).
For each oocyte, the concentration of GABA that produces 5-10% of the maximal current response (EC5-10 GABA) was determined by measuring the peak current responses evoked by a range of GABA concentrations (in ND-96 buffer) and comparing them with the maximal peak current response evoked by 1 mM GABA. The effect of carboetomidate on EC5-10 GABA-evoked currents was then assessed by first perfusing the oocyte with EC5-10 GABA for 90 s and then measuring the control peak evoked current. […]

Xenopus laevis tadpoles [8] = assay: Tadpole loss of righting reflex (LORR) assay; type: in vivo
Description: Tadpoles: Groups of five early prelimb-bud stage Xenopus laevis tadpoles were placed in 100 ml of oxygenated water buffered with 2.5 mM Tris HCl buffer (pH. 7.4) and containing a concentration of carboetomidate ranging from 1 to 40[…]. Tadpoles were tipped manually every 5 min with a flame-polished pipette until the response stabilized. […] At the end of each study, tadpoles were returned to fresh water to ensure reversibility of hypnotic action. The EC50 for LORR was determined from the carboetomidate concentration dependence of LORR using the method of Waud D R, J Pharmacol Exp Ther (1972) 183: 577-607, content of which is herein incorporated by reference.
Tadpoles: The tadpole loss of righting reflex assay was used to test for anesthetic activity. Groups of 5 early prelimb-bud stage Xenopus laevis tadpoles were placed in 100 ml of oxygenated water buffered with 2.5 mM Tris HCl buffer (pH=7) and containing a concentration of carboetomidate ranging from 1-40 μM. See Scheme 1, above, for structure of Carboetomidate. Tadpoles were tipped manually every 5 min with a flame polished pipette. […] At all concentrations, this loss of righting reflex response stabilized within 30 min of carboetomidate exposure. At the end of each study, tadpoles were returned to fresh water to ensure reversibility of hypnotic action.

[9] = biological target: T2, etomidate-insensitive mutant α1β2M286Wγ2L GABAA receptors (Homo sapiens, UniProt P14867+P47870, M310W); assay: GABAA receptor electrophysiology, etomidate-insensitive mutant receptors in Xenopus oocytes; type: cell-based; settings: 10 μM compound
T2 construct: expressed in transfected cells; host or cells: Xenopus laevis oocytes injected with mRNA (subunit ratio 1:1:2)
T2 sequence (P47870 26-512 M310W): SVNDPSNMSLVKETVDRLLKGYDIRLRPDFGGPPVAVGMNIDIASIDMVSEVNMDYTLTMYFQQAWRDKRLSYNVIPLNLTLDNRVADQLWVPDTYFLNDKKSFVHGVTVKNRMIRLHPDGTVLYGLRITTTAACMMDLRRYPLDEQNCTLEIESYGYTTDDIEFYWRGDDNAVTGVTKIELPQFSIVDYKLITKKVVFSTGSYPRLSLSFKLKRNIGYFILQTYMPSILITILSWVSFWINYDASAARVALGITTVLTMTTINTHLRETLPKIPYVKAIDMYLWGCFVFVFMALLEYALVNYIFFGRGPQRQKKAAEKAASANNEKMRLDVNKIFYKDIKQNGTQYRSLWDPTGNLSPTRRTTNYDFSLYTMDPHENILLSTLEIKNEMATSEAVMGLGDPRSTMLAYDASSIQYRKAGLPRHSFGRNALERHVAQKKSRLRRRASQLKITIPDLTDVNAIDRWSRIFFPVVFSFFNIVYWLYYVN
T2 sequence (P14867 28-456): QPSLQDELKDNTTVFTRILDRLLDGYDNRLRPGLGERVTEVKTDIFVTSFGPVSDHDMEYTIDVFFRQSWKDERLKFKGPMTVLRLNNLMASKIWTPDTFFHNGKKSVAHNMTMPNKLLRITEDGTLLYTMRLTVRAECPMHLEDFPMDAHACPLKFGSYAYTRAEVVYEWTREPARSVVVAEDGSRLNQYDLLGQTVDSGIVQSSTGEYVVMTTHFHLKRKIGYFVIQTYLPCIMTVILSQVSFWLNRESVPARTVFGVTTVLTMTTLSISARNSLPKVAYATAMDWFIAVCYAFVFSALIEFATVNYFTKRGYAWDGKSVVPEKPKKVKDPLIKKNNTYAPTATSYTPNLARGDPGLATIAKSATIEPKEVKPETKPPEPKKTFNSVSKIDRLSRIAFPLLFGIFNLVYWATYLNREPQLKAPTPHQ
T2 sequence (P18507 40-475 partner): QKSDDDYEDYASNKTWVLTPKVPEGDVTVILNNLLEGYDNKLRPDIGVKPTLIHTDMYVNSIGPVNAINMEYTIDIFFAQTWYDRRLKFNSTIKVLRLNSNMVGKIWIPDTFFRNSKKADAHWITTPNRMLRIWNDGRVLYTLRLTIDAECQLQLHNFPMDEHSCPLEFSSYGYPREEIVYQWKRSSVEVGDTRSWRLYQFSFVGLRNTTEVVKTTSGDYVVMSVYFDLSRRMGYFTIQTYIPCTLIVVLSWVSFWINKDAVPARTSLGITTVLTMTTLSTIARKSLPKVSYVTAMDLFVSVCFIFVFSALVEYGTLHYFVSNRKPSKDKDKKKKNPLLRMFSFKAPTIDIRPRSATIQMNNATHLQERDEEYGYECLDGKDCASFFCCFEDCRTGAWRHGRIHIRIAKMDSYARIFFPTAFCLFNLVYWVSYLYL
Description: Stage 4 and 5 oocytes were injected with messenger RNA encoding the α1, β2 (or β2M286W), and γ21 subunits of the human GABAA receptor (˜40 ng of messenger RNA total at a subunit ratio of 1:1:2). This messenger RNA was transcribed from complementary DNA encoding for GABAA receptor α1, β2 (or β2M286W), and γ21 subunits using the mMESSAGE mMACHINE High Yield Capped RNA Transcription Kit (Ambion, Austin, Tex.). Injected oocytes were incubated in ND-96 buffer solution (96 mM NaCl, 2 mM KCl, 1 mM CaCl2, 0.8 mM MgCl2, 10 mM HEPES, pH 7.5) containing 50 U/ml of penicillin and 50 μg/ml of streptomycin at 17° C. for at least 18 h before electrophysiologic experiments.
For each oocyte, the concentration of GABA that produces 5-10% of the maximal current response (EC5-10 GABA) was determined by measuring the peak current responses evoked by a range of GABA concentrations (in ND-96 buffer) and comparing them with the maximal peak current response evoked by 1 mM GABA. […]

T1 sequence (P47870 25-512 limits assumed): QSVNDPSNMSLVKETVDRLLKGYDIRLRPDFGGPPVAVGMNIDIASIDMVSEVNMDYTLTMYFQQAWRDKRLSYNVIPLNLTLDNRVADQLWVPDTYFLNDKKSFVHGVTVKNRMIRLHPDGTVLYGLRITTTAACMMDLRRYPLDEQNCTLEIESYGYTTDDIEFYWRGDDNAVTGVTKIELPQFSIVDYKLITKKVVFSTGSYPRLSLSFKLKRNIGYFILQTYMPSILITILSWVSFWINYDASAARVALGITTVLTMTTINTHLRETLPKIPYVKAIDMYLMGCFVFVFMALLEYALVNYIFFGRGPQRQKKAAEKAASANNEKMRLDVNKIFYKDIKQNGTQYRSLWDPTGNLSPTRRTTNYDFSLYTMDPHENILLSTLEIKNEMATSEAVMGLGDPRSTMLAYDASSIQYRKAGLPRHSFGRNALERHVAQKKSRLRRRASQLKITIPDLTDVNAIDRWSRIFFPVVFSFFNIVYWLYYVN
T1 sequence (P14867 28-456): as the sequence (P14867 28-456) above
T1 sequence (P18507 40-475 partner): as the sequence (P18507 40-475 partner) above

Compound	ACTH1-24-stimulated serum corticosterone concentration versus vehicle (in words) (rats [1])	anesthetic toxicity in rats (rats [3]; IV bolus)	slope of duration of anesthesia versus logarithm of anesthetic dose (rats [3]; rats, IV bolus)	onset time for LORR (rats [3]; rats) [s]	onset time for LORR, range (rats [3]; rats) [s]	time to LORR after IV bolus (in words) (rats [3]; rats)	effect on mean blood pressure relative to DMSO vehicle (FIG. 7B) (rats [6])	effect on mean blood pressure, comparison of three anesthetics (FIG. 7A) (rats [6])	also measured
CCOC(=O)c1cncn1C(C)c1ccccc1 (stereo not shown) [etomidate, ethyl 3-(1-phenylethyl)imidazole-4-carboxylate]	significantly reduced	no obvious anesthetic toxicity	27±7	4.5 ± 0.6	4 to 5	within several seconds	significantly reduced mean blood pressure relative to vehicle	magnitude of this decrease was less	magnitude of potentiation of GABAA receptor currents [2]: 660±240%; ED50 (rats [3]; Rattus norvegicus, rats, IV bolus, read-out: ED50 for LORR following bolus administration): 1 ± 0.03 mg/kg; mortality [4]: 77%; concentration inducing loss of righting reflex in tadpoles (Xenopus laevis tadpoles [5]): ~2 µM; concentration inducing loss of responsiveness in humans (humans): ~2 µM
CC(C)c1cccc(C(C)C)c1O [propofol, reference compound]								mean blood pressure decreased	
(R)-1-(1-phenylethyl)-1H-pyrrole-2-carboxylate [carboetomidate]	not different from those that had received only vehicle; also recorded: relatively unchanged versus vehicle	no obvious anesthetic toxicity	16±4	33 ± 22	10 to 63	within several seconds	not significantly greater than that of DMSO vehicle alone	magnitude of this decrease was less; also recorded: depresses blood pressure significantly less than propofol or etomidate	ED50 for LORR following bolus administration (rats [3]; rats, IV bolus): 7 ± 2 mg/kg; enhancement of amplitudes of GABA-evoked currents ([7]; 3 μM GABA, wild-type): 4 fold; enhancement (potentiation) of currents mediated by wild-type receptors ([7]; EC5-10 GABA): 390±80%; toxicity in tadpoles (Xenopus laevis tadpoles [8]; 1-40 μM, recovery in fresh water): No evidence of toxicity was observed; EC50 (Xenopus laevis tadpoles [8]; LORR, Xenopus laevis tadpoles, quantal method of Waud, read-out: anesthetic EC50 (concentration at which 50% of tadpoles were anesthetized)): 5.4 ± 0.5 µM; time for LORR response to stabilize (Xenopus laevis tadpoles [8]; all concentrations (1-40 μM)): ≤ 30 min; fraction of tadpoles anesthetized (Xenopus laevis tadpoles [8]; highest concentrations, 10-40 μM): all tadpoles were anesthetized; effect on amplitude of GABA-evoked currents ([9]; 0.3 μM GABA, mutant M286W): little effect; enhancement of currents mediated by etomidate-insensitive mutant receptors ([9]; EC5-10 GABA): −9±16%

From patent US9187421B2, “Etomidate analogues that do not inhibit adrenocortical steroid synthesis” (THE GENERAL HOSPITAL CORPORATION, priority 2009, dated 2015)
